The target of assay [1] is Aldo-keto reductase family 1 member B1 (Homo sapiens, UniProt P15121). As to the kind of experiment: Inhibitory Activity against Human recombinant Aldose Reductase (wild type).
A short description of assay [2]: Inhibitory Activity ratio (IC50 ratio) calculated by Human recombinant aldose reductase wild type against Mutant Aldose reductase (W111A).
Assay [3] in a line: Inhibitory Activity ratio (IC50 ratio) calculated by Human recombinant aldose reductase wild type against Mutant Aldose reductase (W111Y).
Assay [4] is described as follows: Inhibitory Activity ratio (IC50 ratio) calculated by Human recombinant aldose reductase wild type against Mutant Aldose reductase (W20A).
The nature of assay [5]: Inhibitory Activity ratio (IC50 ratio) calculated by Human recombinant aldose reductase wild type against Mutant Aldose reductase (W20Y).

On to `O=C1NC(=O)C2(N1)c1cc(F)ccc1-c1ccc(F)cc12`, for which the IC50 in assay [1] turned out to be 54.7 nM. Moreover, the Ratio in assay [2] is 781; in assay [3], 1960; in assay [4], 9140; in assay [5], 48.

As for `O=C1CC2(C(=O)N1)C(=O)N(Cc1nc3cc(C(F)(F)F)ccc3s1)C(=O)c1ccc(F)cc12` (stereo not given), in assay [1], the IC50 worked out at 144 nM. Moreover, the Ratio in assay [2] is 19; in assay [3] it was 2; in assay [4], 1; in assay [5], 0.1.

Turning to `O=C(O)Cc1nn(Cc2ccc(Br)cc2F)c(=O)c2ccccc12` [PONALRESTAT], the IC50 in assay [1] is 66.5 nM. Further, the Ratio in assay [2] is 1770; in assay [3] it was 58; in assay [4] it was 1770; in assay [5], 47.

In the case of `CN1C(=O)c2ccc(Cl)cc2C2(CC(=O)NC2=O)C1=O` (stereo not given), the IC50 in assay [1] came out at 78.2 nM. The Ratio in assay [2] is over 1280; in assay [3], 324; in assay [4], 1070; in assay [5], 1.5.

In the case of `CN1C(=O)c2ccc(F)cc2C2(CC(=O)NC2=O)C1=O` (stereo not given), in assay [1], the IC50 came to 73.2 nM. In addition, the Ratio in assay [2] was 2730; in assay [3] it was 773; in assay [4], 1670; in assay [5], 3.

`O=C(O)Cn1c(=O)n(Cc2ccc(Br)cc2F)c(=O)c2ccc(Cl)cc21` [ZENARESTAT]: the IC50 in assay [1] is 42.4 nM. Besides, the Ratio was 786 in assay [2], 12 in assay [3], 448 in assay [4] and 2.5 in assay [5].

Consider `O=C(O)CC1C(=O)N(Cc2ccc(Br)cc2F)C(=O)c2ccc(F)cc21` (stereo not given), for which the IC50 in assay [1] is 227 nM. The Ratio was 120 in assay [2], 193 in assay [3], 311 in assay [4] and 21 in assay [5].

For orientation: IC50 means the concentration needed to halve the response being measured.

(Values after ChEMBL document CHEMBL1133160, “Molecular modeling of the aldose reductase-inhibitor complex based on the X-ray crystal structure and studies with single-site-directed mutants” (J Med Chem, 2000).)
